Values after ≈ are worked out from the molar mass of the structure shown. Values joined by “and” are separate entries in the source; they are usually repeats but may differ in a detail not shown here. Equal values may be shown once. Read-outs that look alike come from different tables or passages of the source.
Experiments:
Assay type in all cases: cell-based, Escherichia coli
EKO-35 wcaC (pCA24N) = assay: MIC of strains harboring ASKA plasmids; conditions: 0.1 mM IPTG; for MIC, EKO-35 wcaC (pCA24N), Chlor +: 4 μg/mL chloramphenicol selection; for MIC, EKO-35 wcaC (pCA24N), Chlor −: no plasmid selection; for MIC: EKO-35 wcaC
EKO-35 (empty pCA24N) = assay: microbe, parasite or virus in culture; conditions: for MIC, EKO-35 (empty pCA24N), Chlor +: 4 μg/mL chloramphenicol selection; for MIC, EKO-35 (empty pCA24N), Chlor −: no plasmid selection
ΔtolC (empty pCA24N) = assay: microbe, parasite or virus in culture; conditions: 0.1 mM IPTG; for MIC, ΔtolC (empty pCA24N), Chlor −: no plasmid selection; for MIC, ΔtolC (empty pCA24N), Chlor +: with chloramphenicol plasmid selection; for MIC: ΔtolC empty pCA24N
K-12 (empty pCA24N) = assay: MIC of strains harboring ASKA plasmids; conditions: 0.1 mM IPTG; for MIC, K-12 (empty pCA24N), Chlor +: 25 μg/mL chloramphenicol selection; for MIC, K-12 (empty pCA24N), Chlor −: no plasmid selection; for MIC: K-12 empty pCA24N
[1] = test system: EKO-35-Pore strains producing other efflux pumps; assay: Checkerboard synergy (FICI), porinated strain; conditions: EKO-35 mdtEF Pore
Outline: (§1)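 Checkerboard broth microdilution in MHB II followed CLSI guidelines, with MIC defined as the lowest concentration giving no growth by OD600. FICI was calculated as CA/MICA + CB/MICB for PAβN or NMP combined with an antibiotic, with <0.5 classed as synergistic. Efflux-attributed fold resistance is the strain MIC divided by the EKO-35 MIC.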

wild-type K-12-Pore = assay: Checkerboard synergy (FICI), porinated strain; conditions: K-12 Pore
Outline: as §1

[2] = test system: EKO-35 porinated strain expressing acrF (AcrEF); assay: Checkerboard synergy (FICI), porinated strain; conditions: EKO-35 acrEF Pore; for PABN MICa Alone: PAβN alone, one value per checkerboard
Outline: as §1

EKO-35 = conditions: for PABN MICa Alone / PABN MICa Combined: EKO-35; for PABN MICa Alone: PAβN alone, one value per checkerboard
Outline: as §1

ΔtolC-Pore = conditions: ΔtolC Pore; for PABN MICa Alone: PAβN alone, one value per checkerboard
Outline: as §1

ΔtolC = conditions: ΔtolC; for PABN MICa Alone: PAβN alone, one value per checkerboard
Outline: as §1

EKO-35 acrBD408A = conditions: EKO-35 acrBD408A; for PABN MICa Alone: PAβN alone, one value per checkerboard
Outline: as §1

wild-type E. coli K-12 = conditions: K-12
Outline: as §1

[3] = test system: EKO-35 strains producing different efflux pumps (EKO-35 araC::X); assay: Checkerboard synergy (FICI) of PAβN or NMP with antibiotics; conditions: for PABN MICa Alone: PAβN alone, one value per checkerboard
Outline: as §1

[4] = Escherichia coli, Chlor −, read-out: MIC
[5] = PAβN alone, one value per checkerboard

N#Cc1ccc(-c2c(NC(=O)C(Cl)Cl)oc(-c3cccs3)c2C#N)cc1 [compound 2]
MIC, EKO-35 wcaC (pCA24N), Chlor + (EKO-35 wcaC (pCA24N)): >5 μg/mL
MIC, EKO-35 wcaC (pCA24N), Chlor − (EKO-35 wcaC (pCA24N)): >5 μg/mL
MIC, EKO-35 (empty pCA24N), Chlor + (EKO-35 (empty pCA24N); 0.1 mM IPTG): >5 μg/mL
MIC, EKO-35 (empty pCA24N), Chlor − (EKO-35 (empty pCA24N); 0.1 mM IPTG): >5 μg/mL
MIC, ΔtolC (empty pCA24N), Chlor − (ΔtolC (empty pCA24N)): 1.25 μg/mL
MIC, ΔtolC (empty pCA24N), Chlor + (ΔtolC (empty pCA24N)): 1.25 μg/mL
MIC, K-12 (empty pCA24N), Chlor + (K-12 (empty pCA24N)): >5 μg/mL
MIC, K-12 (empty pCA24N), Chlor − (K-12 (empty pCA24N)): >5 μg/mL

Cn1cc(Br)c(-c2cccc(NC(=O)Nc3ccc(OC(F)(F)F)cc3)c2)n1 [compound 14]
MIC, EKO-35 wcaC (pCA24N), Chlor + (EKO-35 wcaC (pCA24N)): >5 μg/mL
MIC, EKO-35 wcaC (pCA24N), Chlor − (EKO-35 wcaC (pCA24N)): >5 μg/mL
MIC, EKO-35 (empty pCA24N), Chlor + (EKO-35 (empty pCA24N); 0.1 mM IPTG): >5 μg/mL
MIC, EKO-35 (empty pCA24N), Chlor − (EKO-35 (empty pCA24N); 0.1 mM IPTG): >5 μg/mL
MIC, ΔtolC (empty pCA24N), Chlor − (ΔtolC (empty pCA24N)): 1.25 μg/mL
MIC, ΔtolC (empty pCA24N), Chlor + (ΔtolC (empty pCA24N)): 1.25 μg/mL
MIC, K-12 (empty pCA24N), Chlor + (K-12 (empty pCA24N)): >5 μg/mL
MIC, K-12 (empty pCA24N), Chlor − (K-12 (empty pCA24N)): >5 μg/mL

O=C(Nc1ccccc1C(=O)Nc1nnc(C(F)(F)F)s1)c1ccccc1Cl [compound 19]
MIC, EKO-35 wcaC (pCA24N), Chlor + (EKO-35 wcaC (pCA24N)): >5 μg/mL
MIC, EKO-35 wcaC (pCA24N), Chlor − (EKO-35 wcaC (pCA24N)): >5 μg/mL
MIC, EKO-35 (empty pCA24N), Chlor + (EKO-35 (empty pCA24N); 0.1 mM IPTG): >5 μg/mL
MIC, EKO-35 (empty pCA24N), Chlor − (EKO-35 (empty pCA24N); 0.1 mM IPTG): >5 μg/mL
MIC, ΔtolC (empty pCA24N), Chlor − (ΔtolC (empty pCA24N)): 2.5 μg/mL
MIC, ΔtolC (empty pCA24N), Chlor + (ΔtolC (empty pCA24N)): 2.5 μg/mL
MIC, K-12 (empty pCA24N), Chlor + (K-12 (empty pCA24N)): >5 μg/mL
MIC, K-12 (empty pCA24N), Chlor − (K-12 (empty pCA24N)): >5 μg/mL

COc1cc(Cc2cnc(N)nc2N)cc(OC)c1OC [trimethoprim]
MIC (EKO-35 wcaC (pCA24N); Chlor + (4 μg/mL)): 0.781 µg/mL
MIC (EKO-35 wcaC (pCA24N); [4]): 0.781 µg/mL
MIC (EKO-35 (empty pCA24N); Escherichia coli): 0.391 µg/mL (≈ 1.35 µM)
MIC (ΔtolC (empty pCA24N); Escherichia coli, Chlor +): 1.56 µg/mL (≈ 5.37 µM)
MIC (ΔtolC (empty pCA24N); Escherichia coli, Chlor −): 0.195 µg/mL (≈ 0.672 µM)
MIC (K-12 (empty pCA24N); Escherichia coli, Chlor + (25 μg/mL chloramphenicol), read-out: MIC): 0.781 µg/mL
MIC (K-12 (empty pCA24N); [4]): 0.781 µg/mL

benzalkonium chloride
MIC (EKO-35 wcaC (pCA24N); Chlor + (4 μg/mL)): 0.391 µg/mL
MIC (EKO-35 wcaC (pCA24N); Chlor −): 0.781 µg/mL
MIC (EKO-35 (empty pCA24N); EKO-35 empty pCA24N, Chlor + (4 μg/mL chloramphenicol), 0.1 mM IPTG): 0.781 µg/mL
MIC (EKO-35 (empty pCA24N); EKO-35 empty pCA24N, Chlor −, 0.1 mM IPTG): 0.781 µg/mL
MIC (ΔtolC (empty pCA24N); Chlor +): 0.781 µg/mL
MIC (ΔtolC (empty pCA24N); Chlor −): 1.56 µg/mL
MIC (K-12 (empty pCA24N); Chlor + (25 μg/mL chloramphenicol)): 25 µg/mL
MIC (K-12 (empty pCA24N); Chlor −): 25 µg/mL

phenylalanine-arginine-β-naphthylamide [PAβN]
PABN MICa Alone [1, 5]: 64 µg/mL
PABN MICa Combined ([1]; with Erythromycin): 32 µg/mL
PABN MICa Combined ([1]; with Fusidic Acid): 8 µg/mL
PABN MICa Combined (wild-type K-12-Pore; with Ciprofloxacin): 256 µg/mL
PABN MICa Combined (wild-type K-12-Pore; with Erythromycin): 64 µg/mL
PABN MICa Combined (wild-type K-12-Pore; with Fusidic Acid): 32 µg/mL
PABN MICa Combined (wild-type K-12-Pore; with Linezolid): 32 µg/mL
PABN MICa Combined (wild-type K-12-Pore; with Novobiocin): 2 µg/mL
PABN MICa Combined (wild-type K-12-Pore; with Oxacillin): 64 µg/mL
PABN MICa Alone [2]: 64 µg/mL
PABN MICa Alone ([2]; listed as PABN): 128 µg/mL
PABN MICa Combined ([2]; with Ciprofloxacin): 16 µg/mL
PABN MICa Combined ([2]; with Erythromycin): 16 µg/mL
PABN MICa Combined ([2]; with Fusidic Acid): 8 µg/mL
PABN MICa Combined ([2]; with Oxacillin): 32 µg/mL
PABN MICa Alone (EKO-35): 64 µg/mL
PABN MICa Alone (EKO-35; listed as PABN): 128 µg/mL
PABN MICa Combined (EKO-35; with Ciprofloxacin): 4 µg/mL
PABN MICa Combined (EKO-35; with Erythromycin): 8 µg/mL
PABN MICa Combined (EKO-35; with Fusidic Acid): 16 µg/mL
PABN MICa Combined (EKO-35; with Linezolid): 32 µg/mL
PABN MICa Combined (EKO-35; with Novobiocin): 8 µg/mL
PABN MICa Combined (EKO-35; with Oxacillin): 4 µg/mL
susceptibility to the efflux pump inhibitor alone, efflux-deficient strains vs wild-type (EKO-35; efflux-deficient strains EKO-35, EKO-35 acrBD408A, ΔtolC): exhibits antibacterial activity, which is enhanced upon efflux inactivation
PABN MICa Alone (ΔtolC-Pore): 64 µg/mL
PABN MICa Alone (ΔtolC-Pore; listed as PABN): 128 µg/mL
PABN MICa Combined (ΔtolC-Pore; with Ciprofloxacin): 64 µg/mL
PABN MICa Combined (ΔtolC-Pore; with Erythromycin): 16 µg/mL
PABN MICa Combined (ΔtolC-Pore; with Fusidic Acid): 32 µg/mL
PABN MICa Combined (ΔtolC-Pore; with Linezolid): 64 µg/mL
PABN MICa Combined (ΔtolC-Pore; with Novobiocin): 32 µg/mL
PABN MICa Combined (ΔtolC-Pore; with Oxacillin): 64 µg/mL
PABN MICa Alone (ΔtolC): 64 µg/mL
PABN MICa Alone (ΔtolC; listed as PABN): 128 µg/mL
PABN MICa Combined (ΔtolC; with Ciprofloxacin): 32 µg/mL
PABN MICa Combined (ΔtolC; with Erythromycin): 8 µg/mL
PABN MICa Combined (ΔtolC; with Fusidic Acid): 16 µg/mL
PABN MICa Combined (ΔtolC; with Linezolid): 64 µg/mL
PABN MICa Combined (ΔtolC; with Novobiocin): 16 µg/mL
PABN MICa Combined (ΔtolC; with Oxacillin): 8 µg/mL
PABN MICa Alone (EKO-35 acrBD408A): 64 µg/mL
PABN MICa Alone (EKO-35 acrBD408A; listed as PABN): 128 µg/mL
PABN MICa Combined (EKO-35 acrBD408A; with Ciprofloxacin): 8 µg/mL
PABN MICa Combined (EKO-35 acrBD408A; with Erythromycin): 8 µg/mL
PABN MICa Combined (EKO-35 acrBD408A; with Fusidic Acid): 8 µg/mL
PABN MICa Combined (EKO-35 acrBD408A; with Linezolid): 32 µg/mL
PABN MICa Combined (EKO-35 acrBD408A; with Novobiocin): 8 µg/mL
PABN MICa Combined (EKO-35 acrBD408A; with Oxacillin): 16 µg/mL
PABN MICa Alone (wild-type E. coli K-12; [5]): 256 µg/mL
PABN MICa Combined (wild-type E. coli K-12; with Ciprofloxacin): 64 µg/mL
PABN MICa Combined (wild-type E. coli K-12; with Erythromycin): 16 µg/mL
PABN MICa Combined (wild-type E. coli K-12; with Fusidic Acid): 32 µg/mL
PABN MICa Combined (wild-type E. coli K-12; with Linezolid): 16 µg/mL
PABN MICa Combined (wild-type E. coli K-12; with Novobiocin): 32 µg/mL
PABN MICa Combined (wild-type E. coli K-12; with Oxacillin): 32 µg/mL
PABN MICa Combined ([3]; EKO35 araC::acrB, with Linezolid): 16 µg/mL
PABN MICa Combined ([3]; EKO-35 acrB, with Erythromycin): 16 µg/mL
PABN MICa Combined ([3]; EKO-35 acrB, with Fusidic Acid): 32 µg/mL
PABN MICa Combined ([3]; EKO-35 acrB, with Novobiocin): 32 µg/mL
PABN MICa Combined ([3]; EKO-35 acrB, with Oxacillin): 16 µg/mL
PABN MICa Alone ([3]; EKO-35 acrD): 64 µg/mL
PABN MICa Alone ([3]; EKO-35 acrD, listed as PABN): 128 µg/mL
PABN MICa Combined ([3]; EKO-35 acrD, with Fusidic Acid): 8 µg/mL
PABN MICa Combined ([3]; EKO-35 acrD, with Novobiocin): 16 µg/mL
PABN MICa Combined ([3]; EKO-35 acrD, with Oxacillin): 4 µg/mL
PABN MICa Alone ([3]; EKO-35 acrEF, listed as PABN): 32 µg/mL and 64 µg/mL
PABN MICa Combined ([3]; EKO-35 acrEF, with Ciprofloxacin): 16 µg/mL
PABN MICa Combined ([3]; EKO-35 acrEF, with Erythromycin): 16 µg/mL
PABN MICa Combined ([3]; EKO-35 acrEF, with Fusidic Acid): 8 µg/mL
PABN MICa Combined ([3]; EKO-35 acrEF, with Oxacillin): 16 µg/mL
PABN MICa Alone ([3]; EKO-35 mdtEF): 64 µg/mL
PABN MICa Combined ([3]; EKO-35 mdtEF, with Erythromycin): 16 µg/mL
PABN MICa Combined ([3]; EKO-35 mdtEF, with Fusidic Acid): 8 µg/mL
PABN MICa Alone ([3]; EKO-35 mexCD): 64 µg/mL
PABN MICa Combined ([3]; EKO-35 mexCD, with Ciprofloxacin): 8 µg/mL
PABN MICa Combined ([3]; EKO-35 mexCD, with Erythromycin): 8 µg/mL

Reference: US20230407243A1, “GENETIC PLATFORM TO INVESTIGATE THE FUNCTIONS OF BACTERIAL DRUG EFFLUX PUMPS” (priority 2022, published 2023)
